Here are results for 65 compounds from US7495027B2, “3-aryl-4-hydroxyfuranone compounds and the human and animal health use thereof” (Wyeth, priority 2003, dated 2009).

The first test concerns C. elegans. Description: Efficacy against nematodes (C. elegans motility rating). Also on record: key: 0: no effect; 7: reduced movement in 24 h; 8: dead in 24 h; 9: dead in 4 h. To be noted: dose 100 ppm, observations at 4 h and 24 h postimmersion. How it is done:
Evaluation of the Efficacy of a 3-Aryl-4-Hydroxyfuranone Against Nematodes
In this evaluation, cultures of C. elegans are maintained on E. coli lawns on Nematode Growth Agar at 20° C. New cultures are established twice a week. Nematodes for testing are rinsed from plates using M9 Buffer. […] One μL of this solution is added to each well of a 96 well plate. A mixture of C. elegans in M9 Buffer (100 μL) is added to each well, such that approximately 50 worms of mixed stages (L1, L2, L3, L4 and adults) are present in each well at a final concentration of 100 ppm, 150 ppm or […] of test compound. Concentration of test compound may be varied by gradient dilution of the stock DMSO solution. Observations are made under a dissecting microscope at 4 h and 24 h postimmersion. A rating is based on the motility of the larvae and adults, using the rating system shown below.
As to `O=C1OC(=Cc2ccc(-c3ccc(Cl)cc3)cc2)C(O)=C1c1ccc(C(F)(F)F)cc1` (mixture of isomers), the Rating was found to be 9.
On the same count and under the same terms, for `N#Cc1ccc(C2=C(O)C(=Cc3ccc(-c4ccc(C(F)(F)F)cc4)cc3)OC2=O)cc1` (mixture of isomers) the value was 9; for `O=C1OC(=Cc2ccc(OCC3CC3)cc2)C(O)=C1c1ccc(Cl)cc1` (mixture of isomers), 7; for `Cc1c(C=C2OC(=O)C(c3ccc(OC(F)(F)F)cc3)=C2O)cnn1-c1ccc(F)cc1` (mixture of isomers), 0.
On the same count and under the same terms, for `COc1ccc(-n2ncc(C=C3OC(=O)C(c4ccc(OC(F)(F)F)cc4)=C3O)c2C)cc1` (mixture of isomers) the value was 0.
Still for that read-out and setting: in the case of `Cc1c(C=C2OC(=O)C(c3ccc(OC(F)(F)F)cc3)=C2O)cnn1-c1ccccc1` (mixture of isomers) it was 0; in that of `O=C1OC(=Cc2cccnc2Cl)C(O)=C1c1ccc(OC(F)(F)F)cc1` (mixture of isomers), 9.
`Cc1nc(C=C2OC(=O)C(c3ccc(OC(F)(F)F)cc3)=C2O)c[nH]1` (mixture of isomers): the Rating is reported as 0.
Same read-out and setting: for `O=C1OC(=Cc2c[nH]c(-c3ccccc3)n2)C(O)=C1c1ccc(OC(F)(F)F)cc1` (mixture of isomers) the value was 0; for `O=C1OC(=Cc2ccc3c(c2)OC(F)(F)O3)C(O)=C1c1ccc(OC(F)(F)F)cc1` (mixture of isomers), 9; for `Cc1cc(C=C2OC(=O)C(c3ccc(OC(F)(F)F)cc3)=C2O)n(C)n1` (mixture of isomers), 0.
Still for that read-out and setting: in the case of `O=C1OC(=Cc2ccncc2Cl)C(O)=C1c1ccc(OC(F)(F)F)cc1` (mixture of isomers) it was 9; in that of `O=C1OC(=Cc2ccc(OC(F)(F)C(F)F)cc2)C(O)=C1c1ccc(OC(F)(F)F)cc1` (mixture of isomers), 9.
On the same count and under the same terms, for `O=C1OC(=Cc2ccc(-n3cncn3)cc2)C(O)=C1c1ccc(OC(F)(F)F)cc1` (mixture of isomers) the value was 9; for `O=C1OC(=Cc2cnccc2-c2cccc(Cl)c2)C(O)=C1c1ccc(OC(F)(F)F)cc1` (mixture of isomers), 9.
Regarding `O=C1OC(=Cc2cnccc2-c2ccc(Cl)cc2)C(O)=C1c1ccc(OC(F)(F)F)cc1` (mixture of isomers), the Rating is reported as 9.
The same measure, in the same setting: in the case of `O=C1OC(=Cc2cnccc2-c2ccc(OC(F)(F)F)cc2)C(O)=C1c1ccc(OC(F)(F)F)cc1` (mixture of isomers) it was 9.
On the same count and under the same terms, in the case of `CN1CCN(c2ccc(C=C3OC(=O)C(c4ccc(OC(F)(F)F)cc4)=C3O)cc2)CC1` (mixture of isomers) it was 0; in that of `N#Cc1ccc(-c2ccc(C=C3OC(=O)C(c4ccc(OC(F)(F)F)cc4)=C3O)cc2)cc1` (mixture of isomers), 9.
The same measure, in the same setting: for `O=C1OC(=Cc2ccc(-c3ccc(Cl)cc3)cc2)C(O)=C1c1ccc(OC(F)(F)F)cc1` (mixture of isomers) the value was 9; for `O=C1OC(=Cc2ccc(-c3ccc(Cl)s3)cc2)C(O)=C1c1ccc(OC(F)(F)F)cc1` (mixture of isomers), 9.
The compound `O=C1OC(=Cc2cnccc2-c2ccc(Cl)s2)C(O)=C1c1ccc(OC(F)(F)F)cc1` (mixture of isomers) yielded a Rating of 9.
On the same count and under the same terms, in the case of `O=C1OC(=Cc2ccc(-n3cccc3)cc2)C(O)=C1c1ccc(OC(F)(F)F)cc1` (mixture of isomers) it was 9; in that of `O=C1OC(=Cc2ccc(-c3cccs3)cc2)C(O)=C1c1ccc(OC(F)(F)F)cc1` (mixture of isomers), 9; in that of `Cn1cc(Cl)c(C=C2OC(=O)C(c3ccc(OC(F)(F)F)cc3)=C2O)n1` (mixture of isomers), 0.
Still for that read-out and setting: in the case of `O=C1OC(=Cc2ccc(OCC3CC3)cc2)C(O)=C1c1ccc(OC(F)(F)F)cc1` (mixture of isomers) it was 0; in that of `CCCOc1ccc(C=C2OC(=O)C(c3ccc(OC(F)(F)F)cc3)=C2O)cc1` (mixture of isomers), 0; in that of `O=C1OC(=Cc2ccc(-c3ccc(F)c(C(F)(F)F)c3)o2)C(O)=C1c1ccc(OC(F)(F)F)cc1` (mixture of isomers), 9.
The same measure, in the same setting: in the case of `O=C1OC(=Cc2ccc(N3CCOCC3)nc2)C(O)=C1c1ccc(OC(F)(F)F)cc1` (mixture of isomers) it was 0; in that of `O=C1OC(=Cc2ccc(-c3ccccn3)s2)C(O)=C1c1ccc(OC(F)(F)F)cc1` (mixture of isomers), 9; in that of `O=C1OC(=Cc2ccc(Br)o2)C(O)=C1c1ccc(OC(F)(F)F)cc1` (mixture of isomers), 9.
The compound `Cc1nn(C)c(Cl)c1C=C1OC(=O)C(c2ccc(OC(F)(F)F)cc2)=C1O` (mixture of isomers) yielded a Rating of 0.
Still for that read-out and setting: for `Cc1ccccc1-n1ncc(C=C2OC(=O)C(c3ccc(OC(F)(F)F)cc3)=C2O)c1C` (mixture of isomers) the value was 0; for `O=C1OC(=Cc2ccc(Oc3ccccc3)nc2)C(O)=C1c1ccc(OC(F)(F)F)cc1` (mixture of isomers), 9.
Still for that read-out and setting: in the case of `O=C1OC(=Cc2ccc(C(F)(F)F)cc2)C(O)=C1c1ccc(C(F)(F)F)cc1` (mixture of isomers) [R=H; R1=4-CF3—C6H4**; R2=4-CF3—C6H4] it was 9; in that of `N#Cc1ccc(C=C2OC(=O)C(c3ccc(C(F)(F)F)cc3)=C2O)cc1` (mixture of isomers) [R=H; R1=4-CF3—C6H4**; R2=4-CN—C6H4], 9.
For `O=C1OC(=Cc2ccc(Cl)cc2)C(O)=C1c1ccc(C(F)(F)F)cc1` (mixture of isomers) [R=H; R1=4-CF3—C6H4**; R2=4-Cl—C6H4], the Rating turned out to be 9.
Turning to `N#Cc1ccc(C2=C(O)C(=Cc3ccc(Cl)cc3Cl)OC2=O)cc1` (mixture of isomers) [R=H; R1=4-CN—C6H4**; R2=2,4-diCl—C6H4], the Rating turned out to be 9.

The same test, now with this note: dose 150 ppm, observations at 4 h and 24 h postimmersion.
Turning to `COc1ccccc1-c1ccc(C=C2OC(=O)C(c3cc(Cl)cc(Cl)c3)=C2O)cc1C`, the Rating is on record as 0.
The same measure, in the same setting: in the case of `COc1cc(/C=C2\OC(=O)C(c3cc(Cl)cc(Cl)c3)=C2O)ccc1-c1ccccc1C` it was 9; in that of `O=C1O/C(=C\c2ccc(-c3cccc(C(F)(F)F)c3)cc2)C(O)=C1c1cccc(C(F)(F)F)c1`, 8; in that of `O=C1O/C(=C\c2ccc(N3CCOCC3)c3ccccc23)C(O)=C1c1cccc(Cl)c1`, 0.
The same measure, in the same setting: for `CCOC(=O)N1CCN(c2ccc(/C=C3\OC(=O)C(c4cccc(Cl)c4)=C3O)cc2F)CC1` the value was 7; for `Cc1cc(/C=C2\OC(=O)C(c3cccc(Cl)c3)=C2O)ccc1-c1ccccc1C(F)(F)F`, 9.
In turn, `Cc1cc(/C=C2\OC(=O)C(c3cccc(Cl)c3)=C2O)ccc1-c1ccccc1Cl` showed a Rating of 9.
Still for that read-out and setting: in the case of `COc1ccccc1-c1ccc(C=C2OC(=O)C(c3cccc(Cl)c3)=C2O)cc1C` it was 7; in that of `COc1cc(/C=C2\OC(=O)C(c3cccc(Cl)c3)=C2O)ccc1-c1ccccc1C(F)(F)F`, 9.
On the same count and under the same terms, for `COc1cc(/C=C2\OC(=O)C(c3cccc(Cl)c3)=C2O)ccc1-c1ccccc1Cl` the value was 8; for `O=C1O/C(=C\c2cc(C(F)(F)F)ccc2Cl)C(O)=C1c1ccc(N2CCOCC2)c(F)c1`, 0.
On the same count and under the same terms, for `O=C1OC(=Cc2ccc(-c3cc(C(F)(F)F)cc(C(F)(F)F)c3)cc2)C(O)=C1c1cc(C(F)(F)F)cc(C(F)(F)F)c1` the value was 0; for `CN(C)c1ccc(C=C2OC(=O)C(c3cc(Cl)cc(Cl)c3)=C2O)c2ccccc12`, 0; for `COc1ccc(/C=C2\OC(=O)C(c3cc(Cl)cc(Cl)c3)=C2O)c2ccccc12`, 0.
Compound `O=C1O/C(=C\c2ccc(N3CCOCC3)c3ccccc23)C(O)=C1c1cc(Cl)cc(Cl)c1` displayed a Rating of 0.
The same measure, in the same setting: for `O=C1OC(=Cc2ccccc2OCc2ccccc2)C(O)=C1c1cc(Cl)cc(Cl)c1` the value was 0; for `O=C1O/C(=C\c2ccc(N3CCN(c4ccccc4Cl)CC3)c(Cl)c2)C(O)=C1c1cc(Cl)cc(Cl)c1`, 0; for `CCOC(=O)CNC(=O)CNC(=O)c1cccc(/C=C2\OC(=O)C(c3cc(Cl)cc(Cl)c3)=C2O)c1`, 0.
The same measure, in the same setting: for `O=C1OC(=Cc2cccc(OCc3ccccc3)c2)C(O)=C1c1cc(Cl)cc(Cl)c1` the value was 0.
Same read-out and setting: for `Cc1cc(/C=C2\OC(=O)C(c3cc(Cl)cc(Cl)c3)=C2O)ccc1-c1ccccc1Cl` the value was 7.
`COc1cc(/C=C2\OC(=O)C(c3cc(Cl)cc(Cl)c3)=C2O)ccc1-c1ccccc1C(F)(F)F`: the Rating was determined as 0.
The same measure, in the same setting: in the case of `Cc1ccccc1-c1ccc(C=C2OC(=O)C(c3cc(Cl)cc(Cl)c3)=C2O)cc1C` it was 0; in that of `COc1ccccc1-c1ccc(/C=C2\OC(=O)C(c3cc(Cl)cc(Cl)c3)=C2O)cc1OC`, 0.
Still for that read-out and setting: for `CN(C)c1ccc(/C=C2\OC(=O)C(c3ccc(C(F)(F)F)cc3)=C2O)c2ccccc12` the value was 0; for `Cc1ccc(C2=C(O)/C(=C/c3ccc(-c4ccc(C)cc4)cc3)OC2=O)cc1`, 0.
In turn, `N#Cc1ccc(C2=C(O)C(=Cc3ccc(-c4ccc(Cl)cc4)cc3)OC2=O)cc1` returned a Rating of 9.
Same read-out and setting: in the case of `CN(C)c1ccc(/C=C2\OC(=O)C(c3ccc(Cl)cc3)=C2O)c2ccccc12` it was 0.
